Laboratory results published in patent publication US20160220569A1, “CDK4/6 Inhibitor Dosage Formulations For The Protection Of Hematopoietic Stem And Progenitor Cells During Chemotherapy” (G1 Therapeutics, Inc., priority 2015, published 2016).
Like-named read-outs stand apart in the source and are kept apart here.

Assay: 14-day oral gavage toxicokinetic study in rats
Format: in vivo
Details: both sexes, rat, plasma, po; for concentration at 0.5 h / concentration at 1 h / concentration at 2 h / concentration at 4 h / concentration at 8 h / concentration at 12 h / concentration at 24 h: Mean Compound 1 Plasma Concentration, rats, Overall; for half-life: read-out: t½ (converted)
Method: Plasma was obtained from blood samples collected from rats in a composite sampling scheme, with 3 samples collected per sex, per dose, at each target collection time, as illustrated in Table 21 to Table 25. Samples were collected from the vehicle control group on Day 1 and Day 14 at 3 hour after administration. […] Blood samples were collected in tubes containing K3EDTA as an anticoagulant and placed on ice until processed to plasma via centrifugation. Samples were stored frozen at −80° C. until shipment to the bioanalytical laboratory for analysis.
The following parameters were determined:
Cmax: Maximum observed plasma concentration (ng/mL).
A value of 0 ng/mL was assigned to all values below the lower limit of quantitation (BLQ, <10.0 ng/mL).
AUC(0-inf): Area under the plasma concentration vs. time curve extrapolated from 0 to infinity (ng*h/mL), calculated as AUC(0-t)+AUC(t-inf) where AUC(t-inf) is calculated as last measurable concentration (CLast) divided by ke, where ke is the elimination rate constant determined by linear regression of the last three analytically measured points on the log plasma concentration vs. time curve. The selection criteria of the data points for inclusion in the calculation of ke required that at least three data points representing the terminal phase (after Tmax) were regressed and that R2≧0.850 when rounded.
CL: Clearance (L/h/kg), calculated as the dose divided by AUC(0-t).
Vd: Volume of distribution (L/kg), calculated as dose divided by the product of ke and AUC(0-inf).
Vdss: Steady state volume of distribution (L/kg), calculated as clearance […] mean residence time, where mean residence time is calculated as the area under the first moment curve divided by AUC(0-t).
t½: Elimination half-life (h), calculated as ln(2)/ke, where ke is the elimination rate constant determined by linear regression. Half-life was defined as not determined if regression criteria (specified in AUC(0-inf) above) were not met.
Cmax/Dose: Normalized Cmax, calculated as Cmax divided by total dose.
AUC/Dose: Normalized AUC, calculated as AUC(0-t) divided by total dose.
ii. Statistical Analysis Mean and standard deviation (SD) were calculated in Watson. Values of BLQ were assigned a value of 0 ng/mL for mean calculations. Concentration values and derived TK parameters were reported to three significant figures.

[1] = 2 mg/kg, oral 2 mg/kg, Study Day 1, Overall
[2] = 2 mg/kg, oral 2 mg/kg, Study Day 14, Overall
[3] = 5 mg/kg, oral 5 mg/kg, Study Day 1, Overall
[4] = 5 mg/kg, oral 5 mg/kg, Study Day 14, Overall

CN1CCN(c2ccc(Nc3ncc4cc5n(c4n3)C3(CCCCC3)CNC5=O)nc2)CC1 [Compound 1, 2′-((5-(4-methylpiperazin-1-yl)pyridin-2-yl)amino)-7′,8′-dihydro-6′H-spiro[cyclohexane-1,9′-pyrazino[1′,2′:1,5]pyrrolo[2,3-d]pyrimidin]-6′-one]
concentration at 0.5 h (2 mg/kg, oral 2 mg/kg, Day 1, 0.5 h): 83.7 ng/mL | concentration at 1 h (2 mg/kg, oral 2 mg/kg, Day 1, 1 h): 74.3 ng/mL | concentration at 2 h (2 mg/kg, oral 2 mg/kg, Day 1, 2 h): 149 ng/mL | concentration at 4 h (2 mg/kg, oral 2 mg/kg, Day 1, 4 h): 150 ng/mL | concentration at 8 h (2 mg/kg, oral 2 mg/kg, Day 1, 8 h): 93.6 ng/mL | concentration at 12 h (2 mg/kg, oral 2 mg/kg, Day 1, 12 h): 67.9 ng/mL | concentration at 24 h (2 mg/kg, oral 2 mg/kg, Day 1, 24 h): 6.5 ng/mL | concentration at 0.5 h (2 mg/kg, oral 2 mg/kg, Day 14, 0.5 h): 88.2 ng/mL | concentration at 1 h (2 mg/kg, oral 2 mg/kg, Day 14, 1 h): 78.5 ng/mL | concentration at 2 h (2 mg/kg, oral 2 mg/kg, Day 14, 2 h): 142 ng/mL | concentration at 4 h (2 mg/kg, oral 2 mg/kg, Day 14, 4 h): 119 ng/mL | concentration at 8 h (2 mg/kg, oral 2 mg/kg, Day 14, 8 h): 103 ng/mL | concentration at 12 h (2 mg/kg, oral 2 mg/kg, Day 14, 12 h): 51.9 ng/mL | concentration at 24 h (2 mg/kg, oral 2 mg/kg, Day 14, 24 h): 4.32 ng/mL | AUC(0-inf) [1]: 1770 ng·h/mL | AUC(0-t) [1]: 1730 ng·h/mL | Cmax [1]: 150 ng/mL | Tmax [1]: 4 h | half-life [1]: 4 h | AUC(0-inf) [2]: 1550 ng·h/mL | AUC(0-t) [2]: 1530 ng·h/mL | Cmax [2]: 142 ng/mL | Tmax [2]: 2 h | half-life [2]: 3.46 h | concentration at 0.5 h (5 mg/kg, oral 5 mg/kg, Day 1, 0.5 h): 252 ng/mL | concentration at 1 h (5 mg/kg, oral 5 mg/kg, Day 1, 1 h): 300 ng/mL | concentration at 2 h (5 mg/kg, oral 5 mg/kg, Day 1, 2 h): 391 ng/mL | concentration at 4 h (5 mg/kg, oral 5 mg/kg, Day 1, 4 h): 445 ng/mL | concentration at 8 h (5 mg/kg, oral 5 mg/kg, Day 1, 8 h): 318 ng/mL | concentration at 12 h (5 mg/kg, oral 5 mg/kg, Day 1, 12 h): 168 ng/mL | concentration at 24 h (5 mg/kg, oral 5 mg/kg, Day 1, 24 h): 22.1 ng/mL | concentration at 0.5 h (5 mg/kg, oral 5 mg/kg, Day 14, 0.5 h): 348 ng/mL | concentration at 1 h (5 mg/kg, oral 5 mg/kg, Day 14, 1 h): 389 ng/mL | concentration at 2 h (5 mg/kg, oral 5 mg/kg, Day 14, 2 h): 470 ng/mL | concentration at 4 h (5 mg/kg, oral 5 mg/kg, Day 14, 4 h): 430 ng/mL | concentration at 8 h (5 mg/kg, oral 5 mg/kg, Day 14, 8 h): 262 ng/mL | concentration at 12 h (5 mg/kg, oral 5 mg/kg, Day 14, 12 h): 151 ng/mL | concentration at 24 h (5 mg/kg, oral 5 mg/kg, Day 14, 24 h): 18 ng/mL | AUC(0-inf) [3]: 5150 ng·h/mL | AUC(0-t) [3]: 5020 ng·h/mL | Cmax [3]: 445 ng/mL | Tmax [3]: 4 h | half-life [3]: 4.14 h | AUC(0-inf) [4]: 4930 ng·h/mL | AUC(0-t) [4]: 4820 ng·h/mL | Cmax [4]: 470 ng/mL | Tmax [4]: 2 h | half-life [4]: 4.08 h | concentration at 0.5 h (15 mg/kg, oral 15 mg/kg, Day 1, 0.5 h): 899 ng/mL | concentration at 1 h (15 mg/kg, oral 15 mg/kg, Day 1, 1 h): 1170 ng/mL | concentration at 2 h (15 mg/kg, oral 15 mg/kg, Day 1, 2 h): 1490 ng/mL | concentration at 4 h (15 mg/kg, oral 15 mg/kg, Day 1, 4 h): 1430 ng/mL | concentration at 8 h (15 mg/kg, oral 15 mg/kg, Day 1, 8 h): 1230 ng/mL | concentration at 12 h (15 mg/kg, oral 15 mg/kg, Day 1, 12 h): 767 ng/mL | concentration at 24 h (15 mg/kg, oral 15 mg/kg, Day 1, 24 h): 84.5 ng/mL
